{"source": "patent US11293023B2", "about": "“Tunable endogenous protein degradation” (Dana-Farber Cancer Institute, Inc., priority 2015, dated 2022)", "assay_type_in_all_cases": "cell-based", "key": {"FKBP*-KRASG12V": {"tested_on": "FKBP*-KRASG12V", "experiment": "Immunoblot of FKBP*-KRASG12V (dTAG-KRAS) degradation in NIH3T3 cells", "settings": "for degradation of FKBP*-KRASG12V: 24 hours", "description": "FIG. 11 is an immunoblot of NIH3T3 cells expressing KRASG12V allele fused to FKBP* in the N-terminus or C-terminus. Cells were treated with 500 nM dFKBP7 for the indicated time. Cells were harvested and immunoblotted to measure degradation of FKBP*-KRASG12V and downstream surrogates of KRAS signaling (e.g. pMEK and pAKT).\n(§1) FIG. 12 is an immunoblot of NIH3T3 cells expressing FKBP* fused to the N-terminus of KRASG12V treated with 1 uM of the indicated dFKBP heterobifunctional compounds for 24 hours. Cells were harvested and immunoblotted to measure degradation of FKBP*-KRASG12V and downstream surrogates of KRAS signaling (e.g. pMEK and pAKT).\nas §1, with “FIG. 13” for “FIG. 12”, “with” for “with 1 uM of”, “indicated concentrations of dFKBP13” for “indicated dFKBP heterobifunctional compounds”\nFIG. 14 is an immunoblot of NIH3T3 cells expressing FKBP* fused to the N-terminus of KRASG12V treated with 1 uM dFKBP13 for the indicated time. Cells were harvested and immunoblotted to measure degradation of FKBP*-KRASG12V and downstream surrogates of KRAS signaling (e.g. pMEK and pAKT).\nFIG. 15 is an immunoblot of NIH3T3 cells expressing dTAG-KRASG12V pretreated with 1 uM Carfilzomib (proteasome inhibitor), 0.5 uM MLN4924 (neddylation inhibitor), and 10 uM Lenalidomide (CRBN binding ligand) for two hours prior to a 4 hour treatment with dFKBP13.\nCells were treated with 500 nM dFKBP7 for the indicated time. Cells were harvested and immunoblotted to measure degradation of FKBP*-KRAS and downstream surrogates of KRAS signaling (e.g. pMEK and pAKT).\nIn an effort to identify the best performing dFKBP molecule, dTAG-KRAS degradation was profiled across a series of dFKBP molecules. Western blotting of NIH3T3 cells expressing dTAG-KRASG12V were treated with 1 μM of the indicated dFKBP heterobifunctional compounds for 24 hours. Cells were harvested and immunoblotted to measure degradation of FKBP*-KRAS and downstream surrogates of KRAS signaling (e.g. pMEK and pAKT).\nWestern blotting of NIH3T3 cells expressing FKBP* fused to the N-terminus of KRAS treated with the indicated concentrations of dFKBP13 for 24 hours. Cells were harvested and immunoblotted to measure degradation of FKBP*-KRAS and downstream surrogates of KRAS signaling (e.g. pMEK and pAKT).\nTo evaluate the kinetic control of targeted degradation of dTAG-KRAS, dFKBP13 was administered by increased duration. Western blotting of NIH3T3 cells expressing FKBP* fused to the N-terminus of KRAS treated with 1 μM dFKBP13 for the indicated time. Cells were harvested and immunoblotted to measure degradation of FKBP*-KRAS and downstream surrogates of KRAS signaling (e.g. pMEK and pAKT).\nNIH3T3 cells (CRBN-WT) were engineered to express dTAG-KRASG12V. Cells were pretreated with 1 uM Carfilzomib (proteasome inhibitor), 0.5 uM MLN4924 (neddylation inhibitor), and 10 uM Lenalidomide (CRBN binding ligand) for two hours prior to a 4 hour treatment with dFKBP13. Lysates were prepared and western immunoblot analysis performed. […] Pre-treatment with the NAE1 inhibitor MLN4924 rescued dTAG-KRASG12V expression establishing dependence on CRL activity, as expected for cullin-based ubiquitin ligases that require neddylation for processive E3 ligase activity. Pre-treatment with excess Lenalidomide abolished dFKBP13-dependent dTAG-KRASG12V degradation, confirming the requirement of CRBN engagement for degradation."}, "[1]": {"tested_on": "indicated proteins fused to mutant FKBP* with an HA tag", "experiment": "Immunoblot of proteins fused to FKBP* in MV4;11 leukemia cells", "settings": "MV4;11 cells, 16 hours, indicated concentrations", "text": "Immunoblots of MV4;11 leukemia cells expressing indicated proteins fused to mutant FKBP* with an HA tag.\nTo test the general utility of the dTAG technology across several protein types, the indicated proteins fused to the dTAG in MV4;11 leukemia cells were expressed."}, "[2]": {"tested_on": "NIH3T3 cells expressing dTAG-KRASG12V", "experiment": "Propidium iodide cell cycle analysis of NIH3T3 cells expressing dTAG-KRASG12V", "settings": "48 hours", "description": "FIG. 20 is a bar graph illustrating NIH3T3 cells expressing dTAG-KRASG12V treated with dFKBP7 and dFKBP13 for 48 hours to induce targeted dTAG-KRASG12V degradation. Fixed cells were stained with propidium iodide and cell cycle analysis was performed.\nNIH3T3 cells were engineered to express dTAG-KRASG12V. NIH3T3 cells expressing dTAG-KRASG12V were treated with dFKBP7 and dFKBP13 for 48 hours to induce targeted dTAG-KRASG12V degradation. Fixed cells were stained with propidium iodide and cell cycle analysis was performed."}}, "note": "Entries after “also recorded” stand apart in the source; their conditions may differ.", "data": [{"compound": "CC[C@H](C(=O)N1CCCC[C@H]1C(=O)O[C@H](CCc1ccc(OC)c(OC)c1)c1cccc(OCC(=O)NCCCOCCOCCOCCCNC(=O)COc2cccc3c2C(=O)N(C2CCC(=O)NC2=O)C3=O)c1)c1cc(OC)c(OC)c(OC)c1", "note": "(stereo partly drawn) [dFKBP7]", "values": [{"measurement": "degradation of N-terminal dTAG-KRAS (FKBP*-KRASG12V)", "setting": "FKBP*-KRASG12V; NIH3T3, 500 nM, indicated time", "value": "potent degradation; also recorded: degraded"}, {"measurement": "degradation of proteins fused to dTAG", "setting": "[1]", "value": "degradation was observed with nanomolar concentrations"}, {"measurement": "cell cycle profile (S-phase entry)", "setting": "[2]", "value": "diminished S-phase entry"}]}, {"compound": "CC[C@H](C(=O)N1CCCC[C@H]1C(=O)O[C@H](CCc1ccc(OC)c(OC)c1)c1cccc(OCC(=O)NCCCCCCOc2cccc3c2C(=O)N(C2CCC(=O)NC2=O)C3=O)c1)c1cc(OC)c(OC)c(OC)c1", "note": "(stereo partly drawn) [dFKBP13]", "values": [{"measurement": "degradation of FKBP*-KRASG12V", "setting": "FKBP*-KRASG12V; NIH3T3, 1 uM", "value": "potent degradation"}, {"measurement": "time to degradation of FKBP*-KRASG12V", "setting": "FKBP*-KRASG12V; NIH3T3, 1 uM, post treatment", "value": "≤ 1", "unit": "h"}, {"measurement": "degradation of FKBP*-KRASG12V", "setting": "FKBP*-KRASG12V; NIH3T3, indicated concentrations", "value": "potent degradation"}, {"measurement": "mechanism of dTAG-KRASG12V degradation", "setting": "FKBP*-KRASG12V; NIH3T3 CRBN-WT, 4 hour treatment after inhibitor pretreatment", "value": "CRBN- and proteasome-dependent degradation"}, {"measurement": "degradation of proteins fused to dTAG", "setting": "[1]", "value": "degradation was observed with nanomolar concentrations"}, {"measurement": "cell cycle profile (S-phase entry)", "setting": "[2]", "value": "diminished S-phase entry"}]}]}
